Assays:
[1] = tested on: Puccinia recondita (PUCCRT); test: Field assessment of brown rust of wheat (PUCCRT), 2 field trials; assay type: in vivo, Puccinia recondita on wheat (TRZAW); conditions: relative AUDPC, average of 2 field trials, with Agnique BP-420
Excerpt: (§1) Treatments consisted of the compound of Formula I and the compound of Formula II either using individually or as a two-way mixture with the compound of Formula I. The compound of Formula I was applied with Agnique BP-420 (50% w/w at 0.3% v/v) at 75 and 150 g ai/ha and the compound of Formula II was applied with Agnique BP-420 (50% w/w at 0.3% v/v) at 20, 40, and 60 g ai/ha. Commercial standards used in the studies were Fluxapyroxad (Imtrex), applied at 100 g ai/ha, and Metconazole+Fluxapyroxad (Librax), applied at 161 g ai/ha.
Field Assessment of Puccinia recondita (PUCCRT) in Wheat:
Fungicidal treatment containing the compound of Formula I and the compound of Formula II, either individually or as a two mixture, were assessed against brown rust of wheat (PUCCRT) in two separate field trials. In the first trial, fungicidal treatments were applied at B37-39 (protectant, approximately 0% infection at application) growth stage of wheat (TRZAW, MV Vanek variety) under natural infection of brown rust. The treatment was part of an experimental trial designed as a randomized complete block with four replications and a plot of approximately 2×3 m. Fungicidal treatments were applied at a water volume of 200 L/ha, using a backpack plot sprayer with a TEEJET QJ90-2XTT110 015 Nozzle.
In the second trial, fungicidal treatments containing the compound of Formula I and the compound of Formula II, either individually or as a two way mixture, were applied at B33 (curative, approximately 6.6% infection at application) growth stage of wheat (TRZAW, Miradoux variety) under natural infection of brown rust. The treatments were part of an experimental trial designed as a randomized complete block with four replications and a plot of approximately 2×3 m. Fungicidal treatments were applied at a water volume of 200 L/ha, using a backpack plot sprayer with a HARDI MD110-02 Nozzle.
(§2) Disease severity (percentage of visual diseased foliage on whole plot or leaves) in both field trials was assessed at 5 weeks after application and was recorded following EPPO PP1/26 guideline prescriptions. Area under the disease progress curve (AUDPC) was calculated for each plot in both trials using the sets of recorded severity data. Relative AUDPC (% control based on AUDPC) was calculated as percent of the nontreated control. Final results for the control of brown rust of wheat by the compound of Formula I, the compound of Formula II, and mixtures are reported as an average of the relative AUDPC calculated over both field trials. Statistical analysis was done according to ANOVA and Tukey's test (p=0.10).

[2] = tested on: Puccinia striiformis (PUCCST); test: Field assessment of yellow rust of wheat (PUCCST), 2 field trials; assay type: in vivo, Puccinia striiformis on wheat (TRZAW); conditions: relative AUDPC, average of 2 field trials, with Agnique BP-420
Excerpt: as §1
Field Assessment of Puccinia striiformis (PUCCST) in Wheat:
Fungicidal treatments containing the compound of Formula I and the compound of Formula II, either individually or as a two way mixture, were assessed against yellow rust of wheat (PUCCST) in two separate field trials. In the first trial, fungicidal treatments were applied twice at B31-32 (early curative, 4% infection at application on L3) and B39 (16.3% infection at application on L3) growth stages of winter wheat (TRZAW, Fairplay variety) under naturally occurring infection with PUCCST. The treatments were part of an experimental trial designed as a randomized complete block with four replications and a plot of approximately 1×6 m. Treatments were applied at water volume of 200 L/ha, using a backpack plot sprayer (BKPCKENG, F110-015 Hardi (3) Flat fan nozzle) and pressurized at 200 kPa.
In the second trial, fungicidal treatments containing the compound of Formula I and the compound of Formula II, either individually or as a two way mixture, were applied twice at B32 (protectant, 0% infection on L3 at application) and B37 (early curative, 20% infection on L3 at application) growth stages of wheat (TRZAW, Torch variety) under naturally occurring infection with PUCCST. The treatment was part of an experimental trial designed as a randomized complete block with four replications and a plot of approximately 2×4 m. Treatments were applied at water volume of 200 L/ha, using a backpack precision plot sprayer (BKCKAIR, F110-03 Hypro (4) Flat fan nozzle) and pressurized at 210 kPa.
as §2, with “4-7” for “5”, “yellow” for “brown”

[3] = tested on: Zymoseptoria tritici (SEPTTR); test: Field assessment of leaf blotch of wheat (SEPTTR), 3 field trials; assay type: in vivo, Zymoseptoria tritici on winter wheat (TRZAW); conditions: relative AUDPC, average of 3 field trials, with Agnique BP-420
Excerpt: as §1
Field Assessment of Zymoseptoria tritici (SEPTTR) in Wheat:
Fungicidal treatments containing the compound of Formula I and the compound of Formula II, either individually or as a two way mixture, were assessed against leaf spot of wheat (SEPTTR) in three separate field trials. In the first trial, fungicidal treatments were applied at B37 (curative, 1.8% infection at application on L4) growth stage of winter wheat (TRZAW, Sy moisson variety) under naturally occurring infection with SEPTTR. The treatments were part of an experimental trial designed as a randomized complete block with four replications and a plot of approximately 2×4 m. Treatments were applied at water volume of 200 L/ha, using a backpack plot sprayer (BKPCKAIR, FLAT FAN nozzle) and pressurized at 250 kPa.
In the second trial, fungicidal treatments were applied twice at B32 (curative, 15% infection at application on L5) and B39 (16% infection at application on L4) growth stages of winter wheat (TRZAW, Riband variety) under naturally occurring infection with SEPTTR. The treatments were part of an experimental trial designed as a randomized complete block with four replications and a plot of approximately 1.5×2 m. Treatments were applied at water volume of 200 L/ha, using a backpack plot sprayer (BKPCKAIR, Flat fan nozzle) and pressurized at 180 kPa.
In the final trial, fungicidal treatments were applied twice at B32 (protective, 15% infection at application on L6) and B37 (12% infection at application on L5) growth stages of winter wheat (TRZAW, Smaragd variety) under naturally occurring infection with SEPTTR. […]
as §2, with “at 7-9” for “at 5”, “of leaf spot” for “of brown rust”, “over all three” for “over both”, “trials. […]” for “trials. Statistical analysis was done according to ANOVA and Tukey's test (p=0.10).”

N#Cc1ccc(Oc2ccc(C(F)(F)C(O)(Cn3nc[nH]c3=S)c3ccc(F)cc3F)nc2)cc1 (stereo not drawn) [Compound I, 4-((6-(2-(2,4-difluorophenyl)-1,1-difluoro-2-hydroxy-3-(5-thioxo-4,5-dihydro-1H-1,2,4-triazol-1-yl)propyl)pyridin-3-yl)oxy)benzonitrile]
PUCCRT % Control ([1]; 75 g ai/ha): 79.7%
PUCCRT % Control ([1]; 150 g ai/ha): 89.0%
PUCCST % Control ([2]; 75 g ai/ha): 83.4%
PUCCST % Control ([2]; 150 g ai/ha): 87.7%
SEPTTR % Control ([3]; 75 g ai/ha): 50.3%
SEPTTR % Control ([3]; 150 g ai/ha): 73.8%

COc1ccnc(C(=O)N[C@@H](C)C(=O)O[C@@H](C)C(c2ccc(F)cc2)c2ccc(F)cc2)c1OC(C)=O [Compound II, (S)-1,1-bis(4-fluorophenyl)propan-2-yl (3-acetoxy-4-methoxypicolinoyl)-L-alaninate]
PUCCRT % Control ([1]; 20 g ai/ha): 45.4%
PUCCRT % Control ([1]; 40 g ai/ha): 64.7%
PUCCST % Control ([2]; 40 g ai/ha): 50.6%
PUCCST % Control ([2]; 60 g ai/ha): 56.2%
SEPTTR % Control ([3]; 20 g ai/ha): 35.1%
SEPTTR % Control ([3]; 40 g ai/ha): 52.2%

Reference: US20230042961A1, “FUNGICIDAL COMPOUNDS AND MIXTURES FOR FUNGAL CONTROL IN CEREALS” (Dow AgroSciences LLC, priority 2017, published 2023)
